Marks after values point to notes of the source that are not given here.
How the values were obtained:
[1] = test system: "in vitro" rumen fluid culture; test: Biogas production in "in vitro" rumen fluid culture (pressure meter); format: cell-based, calves; parameters: Average biogas production / Cumulative biogas production / Biogas production: unit not given here; settings: Exp 1; for Average biogas production: average over doses and incubation times
Method: (§1) Two trials following an identical experimental protocol were designed to study the effect of different pure flavonoids on rumen fermentation using a simulatory “in vitro” system based on the experimental protocol described by Theodorou M K et al. (1994) Animal Feed Science and Technology, 48 (3), p. 185-197; Mauricio, R. M., et al. (1999) Animal Feed Science and Technology 79, 321-330.
Gas production was determined from a semi-automatic pressure meter, the relationship between pressure levels and the produced gas volume was previously calculated.
(§2) Rumen cannulated calves which received a mixed ration mainly composed of concentrate (90:10) were used as rumen fluid donor; feed composition is presented in Table 1. The inoculum was collected and filtered through two-layer surgical gauze and kept in thermo pots. Flavonoids (Table 2) plus 600 mg of concentrate (Table 1) and 60 mg of barley straw as the substrate were dosed by triplicate in preheated bottles (39° C.) and maintained under anaerobic conditions. Flavonoids isonaringin, neoeritrocin, poncirin were purchased from INDOFINE Chemical Company, Inc (USA). 10 ml of rumen fluid and 40 ml of incubation medium were added to the bottles (McDougall, El (1948) Studies on ruminant saliva. 1. The composition and output of sheep's saliva. Biochem J. 43(1) 99-109). Once the bottles were filled and the anaerobic condition was applied, the bottles were sealed and the incubation process was started in a hot water bath. […] Each sample was incubated in triplicate in two sets or batches.

[2] = test system: methanogenic (archea) populations; test: Methane production in "in vitro" rumen fluid culture; format: cell-based, calves; parameters: Average methane production / Accumulated methane production / Methane production / Cumulative methane production: unit not given here; settings: Exp 1
From the text: as §1, §2
The effects of flavonoids substances on fermentation activity of certain archea populations which are theoretically responsible for the methane production were analyzed.
The experimental design allows determining whether the effect of flavonoids on methane reduction was derived from a general reduction in microbial activity and biogas production or contrarily flavonoid affects specifically on methanogenic (archea) populations. The presence of flavonoids in the culture medium reduced methane contribution in the total biogas production (P<0.05) although, again, the aforementioned impact was heterogeneous.

[3] = test system: "in vitro" ruminal fluid cultures; test: Volatile fatty acid concentration and molar proportions in "in vitro" ruminal fluid cultures; format: cell-based, calves
From the text: as §1
(§3) Rumen cannulated calves which received a mixed ration mainly composed of concentrate (90:10) were used as rumen fluid donor; feed composition is presented in Table 1. The inoculum was collected and filtered through two-layer surgical gauze and kept in thermo pots. Flavonoids (Table 2) plus 600 mg of concentrate (Table 1) and 60 mg of barley straw as the substrate were dosed by triplicate in preheated bottles (39° C.) and maintained under anaerobic conditions. Flavonoids isonaringin, neoeritrocin, poncirin were purchased from INDOFINE Chemical Company, Inc (USA). 10 ml of rumen fluid and 40 ml of incubation medium were added to the bottles (McDougall, El (1948) Studies on ruminant saliva. 1. The composition and output of sheep's saliva. Biochem J. 43(1) 99-109). Once the bottles were filled and the anaerobic condition was applied, the bottles were sealed and the incubation process was started in a hot water bath. Pressure readings were made at 2, 4, 6, 8, 12, 24, 36 and 48 hours. Each sample was incubated in triplicate in two sets or batches.
[…] P., 1982 Science des Aliments 2, 131-144), lactate (Taylor, K. A. C. C., 1996. Appl. Biochem. Biotechnol. Enzym. Eng. Biotechnol. 56, 49-58) and ammonia (Chaney, A. L., Marbach, E. P., 1962. Clin. Chem. 8, 130-132) analyses.

[4] = test system: "in vitro" ruminal fluid cultures; test: Ammonia (N-NH3) concentration in "in vitro" ruminal fluid cultures; format: cell-based, calves
From the text: as §1, §3
(§4) After 12 hours of incubation, one bottle (replicate) from each treatment was opened, pH was recorded and the bottle was sampled for volatile fatty acids (Jouany, J. P., 1982 Science des Aliments 2, 131-144), lactate (Taylor, K. A. C. C., 1996. Appl. Biochem. Biotechnol. Enzym. Eng. Biotechnol. 56, 49-58) and ammonia (Chaney, A. L., Marbach, E. P., 1962. Clin. Chem. 8, 130-132) analyses.

[5] = test system: "in vitro" ruminal fluid culture; test: Lactate concentration in "in vitro" ruminal fluid culture; format: cell-based, calves; settings: 12 hours of incubation
From the text: as §1, §3, §4

[6] = test system: ruminal bacteria; test: Bacterial DNA concentration by qPCR; format: cell-based, calves; settings: 12 hours of incubation
Method: as §3, §4
(§5) The environmental DNA was extracted using the technique proposed by Yu and Morrison (2004). Quantification of Streptococcus bovis, Megasphaera elsdenii and Selenomonas ruminantium DNA was done by qPCR using specific primers (Tajima, K. et al. 2001. Appl. Environ. Microb. 67, 2766-2774; Ouwerkerk, D., et al. 2002. J. Appl. Microbiol. 92, 753-758). Results were statistically analyzed using the PROC MIXED procedure of SAS statistical package (SAS, 2000, User's guide: Statistics, version 8 editions inst., Inc., Cary, N.C.). The least significant difference was used to compare the means. Differences between means in which P<0.05 were accepted as significant.

[7] = test system: Streptococcus bovis; test: qPCR relative quantification of Streptococcus bovis; format: cell-based; settings: 12 hours of incubation
Method: as §3, §4, §5

[8] = test system: Selenomonas ruminantium; test: qPCR relative quantification of Selenomonas ruminantium; format: cell-based; settings: 12 hours of incubation
Method: as §3, §4, §5

[9] = test system: Megasphaera elsdenii; test: qPCR relative quantification of Megasphaera elsdenii; format: cell-based; settings: 12 hours of incubation
Method: as §3, §4, §5

[10] = test system: "in vitro" ruminal fluid cultures; test: Ammonia (N-NH3) concentration in "in vitro" ruminal fluid cultures; format: cell-based, calves; settings: 72 h
[11] = average over doses and incubation times

For `COc1ccc([C@@H]2CC(=O)c3c(O)cc(O[C@@H]4O[C@H](CO[C@@H]5O[C@@H](C)[C@H](O)[C@@H](O)[C@H]5O)[C@@H](O)[C@H](O)[C@H]4O)cc3O2)cc1O` [Hesperidin, hesperidin], the Cumulative biogas production ([1]; 12 h incubation) was 187.19, the Cumulative biogas production ([1]; 24 h incubation) was 227.31 and the Cumulative biogas production ([1]; 48 h incubation) was 261.28. The Cumulative biogas production ([1]; 72 h incubation) was 282.84, the Average biogas production [1] was 239.65^cd and the Average biogas production ([1]; listed as hesperidin) was 239.6. The Biogas production ([1]; dose 1, 0.2 g/kg DM) was 239.91, the Biogas production ([1]; dose 2, 0.5 g/kg DM) was 239.4 and the Accumulated methane production ([2]; 12 h) was 21.08. For the same molecule, the “Proportion of methane in the produced biogas” value (“Proportion of methane” for short) ([2]; 12 h) was 11.26, the Accumulated methane production ([2]; 24 h) was 26.03 and the “Proportion of methane” value ([2]; 24 h) was 12.40. For the same molecule, the Accumulated methane production ([2]; 48 h) was 31.54, the “Proportion of methane” value ([2]; 48 h) was 16.43 and the Accumulated methane production ([2]; 72 h) was 35.04. The “Proportion of methane” value ([2]; 72 h) was 16.55, the Average methane production [2, 11] was 28.42^cd and the “Proportion of methane” value [2, 11] was 14.16^cd. For the same molecule, the Average methane production ([2]; average over doses and incubation times, listed as hesperidin) was “not modified”, the Methane production ([2]; dose 1, 0.2 g/kg DM) was 28.11 and the “Proportion of methane” value ([2]; dose 1, 0.2 g/kg DM) was 14.05. For the same molecule, the Methane production ([2]; dose 2, 0.5 g/kg DM) was 28.74, the “Proportion of methane” value ([2]; dose 2, 0.5 g/kg DM) was 14.27 and the “% Acetate, molar ratio” value ([3]; 0 h) was 62.51 mol/100 mol. The “% Butyrate, molar ratio” value ([3]; 0 h) was 9.07 mol/100 mol, the “% Propionate, molar ratio” value ([3]; 0 h) was 20.03 mol/100 mol and the “A/P rate (acetate/propionate)” value ([3]; 0 h) was 3.12. For the same molecule, the VFA concentration ([3]; 0 h (initial constant value)) was 13.78 mmol/L, the “% Acetate, molar ratio” value ([3]; 12 h) was 56.88 mol/100 mol and the “% Butyrate, molar ratio” value ([3]; 12 h) was 10.41 mol/100 mol. The “% Propionate, molar ratio” value ([3]; 12 h) was 27.22 mol/100 mol, the “A/P rate (acetate/propionate)” value ([3]; 12 h) was 2.09 and the VFA concentration ([3]; 12 h) was 38.25 mmol/L. The “% Acetate, molar ratio” value ([3]; 72 h) was 56.04 mol/100 mol, the “% Butyrate, molar ratio” value ([3]; 72 h) was 10.78 mol/100 mol and the “% Propionate, molar ratio” value ([3]; 72 h) was 25.80 mol/100 mol. The “A/P rate (acetate/propionate)” value ([3]; 72 h) was 2.17, the VFA concentration ([3]; 72 h) was 53.70 mmol/L and the “% Acetate, molar ratio, average (μ)” value ([3]; average over incubation times) was 58.48 mol/100 mol. The “% Butyrate, molar ratio, average (μ)” value ([3]; average over incubation times) was 10.08 ^ab mol/100 mol, the “% Propionate, molar ratio, average (M)” value ([3]; average over incubation times) was 24.35 ^ab mol/100 mol and the “VFA concentration, average (μ)” value ([3]; average over incubation times) was 35.25 mmol/L. The N-NH3 concentration ([4]; 0 h (initial constant value)) was 149.99 mg/L, the N-NH3 concentration ([4]; 12 h) was 187.36 mg/L and the “N-NH3 concentration, average (M)” value ([4]; average over incubation times) was 220.15 mg/L. The Lactate [5] was 44.3 mg/L, the Lactate ([5]; listed as hesperidin) was “tended to moderate the recorded increase” and the “Bacteria DNA” value [6] was 9.18 ^a μg/ml. The “Relative Quantification 2^(ΔΔCt) S. bovis” value [7] was 0.58, the “Relative Quantification 2^(ΔΔCt) S. ruminantium” value [8] was 0.74 and the “Relative Quantification 2^(ΔΔCt) M. elsdenii” value [9] was 1.18 ^b. For the same molecule, the N-NH3 concentration [10] was 323.11 mg/L.

From patent publication US10159265B2, “Feed composition for reducing ruminant methanogenesis” (priority 2012, dated 2018)
